# Reference: PMC8911181, “A Novel CDK4/6 and PARP Dual Inhibitor ZC-22 Effectively Suppresses Tumor Growth and Improves the Response to Cisplatin Treatment in Breast and Ovarian Cancer” (International Journal of Molecular Sciences, 2022)
# Experiments:
# [1] = test system: γH2A.X; assay: Immunofluorescence staining of γH2A.X foci; format: cell-based, human; conditions: MDA-MB-231 (2 μM) and OVCAR5 (0.5 μM) cells; 24 h
# Procedure: Immunofluorescence-staining of γH2A.X was performed as described before. Briefly, cells were seeded on cover glasses in 24-well plates, cultured for 24–48 h, and then treated with cisplatin alone or together with Olaparib or ZC-22 for 24 h. After washing with PBS, cells were fixed by 4% PFA, permeated with 0.5% Triton-X100 in PBS, washed thrice with 0.1% PBS-Tween (PBST), blocked with 3% BSA in PBST, and then incubated with anti-γH2A.X antibody overnight at 4 °C. […] At least 150 cells in three fields were counted for each repeat.
# (§1) Figure 3 ZC-22 inhibits CDK4/6 and PARP to induce cell-cycle arrest, DNA damage, and apoptosis in breast and ovarian cancer cells. […] The levels of CDK4/6 and p-Rb/Rb were determined by Western blot (A). Cell-cycle distribution was analyzed by flow cytometry (B). […] (D,E) Representative pictures (left) and quantification of percentage (right) of γH2A.X-positive cells in MDA-MB-231 cells treated with 2 μM OLA or ZC-22 for 24 h (D), or OVCAR5 cells treated with 0.5 μM OLA or ZC-22 for 24 h (E). Values are means ± SD, n = 3. * p < 0.05, ** p < 0.01, and *** p < 0.001 for comparisons with the DMSO-treated group. p value was calculated using an unpaired t-test. […] Values are means ± SD, n = 3. * p < 0.05, ** p < 0.01, and *** p < 0.001 vs. the DMSO-treated group. p value was calculated using an unpaired t-test. […]
# [2] = test system: PARP; assay: Western blot of PAR, a direct product of PARP; format: cell-based, human; conditions: MDA-MB-231 (2 μM) and OVCAR5 (0.5 μM) cells, 48 h
# Procedure: Cells were washed with PBS, collected with scraper, and then lysed in RIPA buffer containing 1× protease and phosphatase inhibitors for 30 min on ice. The supernatants were collected by centrifugation at full speed for 10 min at 4 °C and subjected to SDS-PAGE followed by immunoblotting as described before. Signals were detected using enhanced chemiluminescence (Millipore, Burlington, MA, USA) and captured by the G: BOX Chemi XRQ gel doc System (Syngene, Cambridge, UK).
# as §1, with “cells. (A,B) MDA-MB-231 cells were treated with 2 μM LY2835219 (LY-2) or ZC-22.” for “cells.”
# [3] = test system: MDA-MB-231 and OVCAR5 cells; assay: PI-based cell-cycle analysis by flow cytometry; design: species or system human; conditions: MDA-MB-231 (2 μM) and OVCAR5 (0.5 μM) cells; 24 h
# Procedure: MDA-MB-231 cells were treated with 2 μM LY2835219 or ZC-22, and OVCAR5 cells were treated with 0.5 μM LY2835219 or ZC-22 for 24 h. After washing in PBS, cells were fixed with 70% ethanol on ice for 2 h, followed by centrifugation at 300× g—for 20 min at 4 °C, and then subjected to a propidium iodide (PI, BD Biosciences, Franklin Lakes, NJ, USA) based cell-cycle analysis according to the manufacturer’s protocols. Cell-cycle distribution was analyzed by flow cytometry. Each experiment was performed in triplicates.
# Figure 3 ZC-22 inhibits CDK4/6 and PARP to induce cell-cycle arrest, DNA damage, and apoptosis in breast and ovarian cancer cells. […] The levels of CDK4/6 and p-Rb/Rb were determined by Western blot (A). Cell-cycle distribution was analyzed by flow cytometry (B). […] (D,E) Representative pictures (left) and quantification of percentage (right) of γH2A.X-positive cells in MDA-MB-231 cells treated with 2 μM OLA or ZC-22 for 24 h (D), or OVCAR5 cells treated with 0.5 μM OLA or ZC-22 for 24 h (E). Values are means ± SD, n = 3. * p < 0.05, ** p < 0.01, and *** p < 0.001 for comparisons with the DMSO-treated group. p value was calculated using an unpaired t-test. (F,G) Representative pictures (F) and quantification of percentage (G) of apoptotic cells in MDA-MB-231 cells treated with 2 μM LY-2, OLA, or ZC-22 for 48 h or in OVCAR5 cells treated with 0.5 μM LY-2, OLA or ZC-22 for 48 h. […]
smiles,measurement,setting,value
"Cc1nc2c(F)cc(-c3nc(Nc4ccc(N5CCN(C(=O)c6cc(Cc7n[nH]c(=O)c8ccccc78)ccc6F)CC5)cn4)ncc3F)cc2n1C(C)C [ZC-22, 4-(4-fluoro-3-(4-(6-((5-fluoro-4-(4-fluoro-1-isopropyl-2-methyl-1H-benzo[d]imidazole-6-yl)pyrimidin-2-yl)amino)pyridin-3-yl)piperazine-1-carbonyl)benzyl)phthalazin-1(2H)-one]",formation of γH2A.X foci,[1],notably induced formation of γH2A.X foci
same,PAR expression,[2],effectively inhibited PAR expression
same,cell-cycle distribution,[3],dramatically arrested cell cycle at the G1/S check-point
